Tests used:
[1] = molecular target: human OATP1B1 transporter (Homo sapiens (Human), UniProt Q9Y6L6); test: Transporter mediated cellular uptake, OATP1B1-expressing HEK293; assay type: in vitro ADME; conditions: HEK293 stably expressing human OATP1B1, 37° C., 0.5 minutes
Protocol: (§1) Transporter Mediated Cellular Uptake
(§2) To determine transporter mediated cellular uptake of compounds, HEK293 stably expressing either human OATP1B1 or human OATP1B3 transporter, or mock transfected cells were cultured at 37° C. in an atmosphere of 95:5 air:CO2 DMEM/F12 medium containing 10% FBS, 100 unit/mL penicillin-G and 100 μg/mL streptomycin. Transporter expressing cell culture medium also contained 500 μg/mL G418 disulfate solution. Cells were plated onto 24-well poly-D-lysine coated culture plates at the density 5×10^5 cells/well 24 hours prior to uptake assay. Compound stock solutions were made at 1000× final concentration in 100% DMSO. Final compound solutions were prepared by diluting stock solutions into HBSS buffer (pH 7.4) On the day of the uptake assay cell culture media was removed and cells were washed twice with 300 μL of HBSS buffer (pH 7.4). Cellular uptake of compound into the cells was measured by adding 300 μL of final compound solutions in HBSS and incubating them at 37° C. for 0.5 minutes (OATP1B1) or 5 minutes (OATP1B3). Reactions were quenched by removing the buffer containing the TA and the cells were washed twice with 300 μL of HBSS buffer. Cells were lysed by adding 300 μL of MeOH:H2O (2:1) and incubated for 20 minutes at 4° C. The amount of compound in the cell lysate was determined by LC-MS/MS. The amount of protein in each well was quantified using the BCA kit for protein determination and used to normalize compound uptake (Sigma-Aldrich, St Louis, Mo., USA). • Uptake of the probe substrate in control cells provided background activity values for all data points. • Incubation with probe substrate (solvent only) provided 100% activity values. • A reference positive control was used for each transporter

[2] = molecular target: human OATP1B3 transporter (Homo sapiens (Human), UniProt Q9NPD5); test: Transporter mediated cellular uptake, OATP1B3-expressing HEK293; assay type: in vitro ADME; conditions: HEK293 stably expressing human OATP1B3, 37° C., 5 minutes
Chain of human OATP1B3 transporter (Q9NPD5 whole entry): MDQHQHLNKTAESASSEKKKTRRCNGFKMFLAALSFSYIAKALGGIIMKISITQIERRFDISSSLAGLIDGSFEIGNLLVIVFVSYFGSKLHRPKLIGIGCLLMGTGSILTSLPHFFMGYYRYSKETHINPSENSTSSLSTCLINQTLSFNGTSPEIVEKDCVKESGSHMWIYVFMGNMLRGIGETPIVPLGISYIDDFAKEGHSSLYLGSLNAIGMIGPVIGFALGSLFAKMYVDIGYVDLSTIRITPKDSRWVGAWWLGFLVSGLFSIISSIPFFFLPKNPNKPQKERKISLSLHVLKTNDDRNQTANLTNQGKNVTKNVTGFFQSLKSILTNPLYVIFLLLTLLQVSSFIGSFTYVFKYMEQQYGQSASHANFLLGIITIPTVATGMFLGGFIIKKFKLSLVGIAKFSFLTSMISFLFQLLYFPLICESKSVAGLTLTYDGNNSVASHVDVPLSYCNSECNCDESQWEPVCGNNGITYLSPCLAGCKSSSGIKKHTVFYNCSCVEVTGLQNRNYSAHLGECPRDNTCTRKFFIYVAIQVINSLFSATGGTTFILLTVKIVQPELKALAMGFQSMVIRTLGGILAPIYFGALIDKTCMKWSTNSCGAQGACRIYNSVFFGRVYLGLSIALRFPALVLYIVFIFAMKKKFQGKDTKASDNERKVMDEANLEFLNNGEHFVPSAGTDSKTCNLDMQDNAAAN
Protocol: as §1, §2

[3] = molecular target: recombinant human ASK1 protein (Homo sapiens (Human), UniProt Q99683); test: ASK1 kinase activity inhibition assay (radiometric 33P incorporation into MBP); assay type: biochemical; conditions: 20 μM MBP, 10 μM 33P-ATP
Chain of recombinant human ASK1 protein (Q99683 whole entry): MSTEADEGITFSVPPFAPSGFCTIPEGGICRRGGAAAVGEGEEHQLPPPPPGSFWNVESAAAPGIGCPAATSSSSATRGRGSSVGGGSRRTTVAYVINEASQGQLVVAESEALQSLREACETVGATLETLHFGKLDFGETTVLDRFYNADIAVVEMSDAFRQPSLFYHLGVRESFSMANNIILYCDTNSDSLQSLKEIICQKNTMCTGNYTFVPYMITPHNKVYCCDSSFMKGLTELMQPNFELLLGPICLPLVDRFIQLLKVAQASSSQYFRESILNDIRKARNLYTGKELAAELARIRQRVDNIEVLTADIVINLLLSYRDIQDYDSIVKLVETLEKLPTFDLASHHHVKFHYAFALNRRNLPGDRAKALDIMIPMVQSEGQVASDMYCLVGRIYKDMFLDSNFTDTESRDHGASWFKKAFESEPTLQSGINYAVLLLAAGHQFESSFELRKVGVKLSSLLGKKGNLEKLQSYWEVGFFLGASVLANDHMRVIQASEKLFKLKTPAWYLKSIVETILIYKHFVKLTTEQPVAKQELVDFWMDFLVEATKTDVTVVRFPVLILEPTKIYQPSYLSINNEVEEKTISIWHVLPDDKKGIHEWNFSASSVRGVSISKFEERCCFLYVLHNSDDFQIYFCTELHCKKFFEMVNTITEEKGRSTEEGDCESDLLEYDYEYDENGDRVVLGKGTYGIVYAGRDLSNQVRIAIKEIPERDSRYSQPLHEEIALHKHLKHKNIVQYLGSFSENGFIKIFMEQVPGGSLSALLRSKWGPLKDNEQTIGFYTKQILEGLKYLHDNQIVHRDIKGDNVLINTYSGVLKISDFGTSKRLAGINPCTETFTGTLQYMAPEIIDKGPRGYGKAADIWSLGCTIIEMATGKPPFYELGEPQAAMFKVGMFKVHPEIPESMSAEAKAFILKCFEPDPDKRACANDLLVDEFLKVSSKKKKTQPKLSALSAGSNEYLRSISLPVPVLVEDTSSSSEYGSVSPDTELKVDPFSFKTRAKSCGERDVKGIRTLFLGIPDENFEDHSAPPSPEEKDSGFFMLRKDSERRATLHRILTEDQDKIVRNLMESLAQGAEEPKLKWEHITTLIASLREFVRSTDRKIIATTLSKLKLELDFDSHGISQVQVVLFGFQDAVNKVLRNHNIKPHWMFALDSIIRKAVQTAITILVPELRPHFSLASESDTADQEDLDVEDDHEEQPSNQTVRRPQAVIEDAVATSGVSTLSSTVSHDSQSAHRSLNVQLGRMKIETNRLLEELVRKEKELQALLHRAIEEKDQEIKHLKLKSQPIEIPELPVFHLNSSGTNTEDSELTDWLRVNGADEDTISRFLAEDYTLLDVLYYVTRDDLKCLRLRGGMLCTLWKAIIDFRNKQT
Method in brief: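 Compound (1% DMSO final) was preincubated for 20 min at room temperature with recombinant human ASK1 and 20 μM MBP in HEPES pH 7.5 buffer. Reactions started with 10 μM 33P-ATP and ran for 2 h at room temperature. 33P incorporation into MBP was measured by P81 filter binding.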

[4] = molecular target: ASK1 kinase active site (Homo sapiens (Human), UniProt Q99683); test: ASK1 kinase active site binding assay (KINOMEscan); conditions: 11-point 3-fold dilution series
Chain of ASK1 kinase active site (Q99683 whole entry): as above
Protocol: ASK1 Kinase Active Site Binding Assay
Compound binding to the ASK1 kinase active site was determined using the KINOMEscan Assay platform (DiscoverX, San Diego, Calif.). Briefly, ASK1-tagged T7 phage strains were prepared in an E. coli host derived from the BL21 strain. E. coli were grown to log-phase and infected with T7 phage and incubated with shaking at 32° C. until lysis. The lysates were centrifuged and filtered to remove cell debris. The remaining kinases were produced in HEK-293 cells and subsequently tagged with DNA for qPCR detection. Streptavidin-coated magnetic beads were treated with biotinylated small molecule ligands for 30 minutes at room temperature to generate affinity resins for kinase assays. The liganded beads were blocked with excess biotin and washed with blocking buffer (SeaBlock (Pierce), 1% BSA, 0.05% Tween 20, 1 mM DTT) to remove unbound ligand and to reduce nonspecific binding. Binding reactions were assembled by combining kinases, liganded affinity beads, and test compounds in 1× binding buffer (20% SeaBlock, 0.17×PBS, 0.05% Tween 20, 6 mM DTT). Test compounds were prepared as 111× stocks in 100% DMSO. Kds were determined using an 11-point 3-fold compound dilution series with three DMSO control points. […] The kinase concentration in the eluates was measured by qPCR. Binding constants (Kds) were calculated with a standard dose-response curve using the Hill equation. […]

Chain of human OATP1B1 transporter (Q9Y6L6 whole entry): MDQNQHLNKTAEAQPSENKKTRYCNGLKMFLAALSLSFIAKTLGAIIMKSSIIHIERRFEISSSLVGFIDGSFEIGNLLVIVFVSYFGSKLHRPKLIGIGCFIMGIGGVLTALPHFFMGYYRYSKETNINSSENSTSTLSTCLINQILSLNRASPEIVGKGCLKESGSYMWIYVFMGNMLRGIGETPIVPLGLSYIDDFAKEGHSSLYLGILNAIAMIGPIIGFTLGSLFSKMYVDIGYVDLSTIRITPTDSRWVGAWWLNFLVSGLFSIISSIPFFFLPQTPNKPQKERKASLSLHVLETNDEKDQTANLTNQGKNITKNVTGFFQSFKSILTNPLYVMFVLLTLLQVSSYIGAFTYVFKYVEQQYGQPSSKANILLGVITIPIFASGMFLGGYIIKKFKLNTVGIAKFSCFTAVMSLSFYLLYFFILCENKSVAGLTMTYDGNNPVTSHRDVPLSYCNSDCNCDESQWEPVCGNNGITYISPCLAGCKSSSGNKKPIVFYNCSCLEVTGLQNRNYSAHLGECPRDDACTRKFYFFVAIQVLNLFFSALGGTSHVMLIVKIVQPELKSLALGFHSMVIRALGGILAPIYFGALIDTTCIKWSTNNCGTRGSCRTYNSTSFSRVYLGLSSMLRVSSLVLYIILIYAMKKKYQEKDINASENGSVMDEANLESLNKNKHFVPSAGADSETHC

Row | Structure (SMILES) | OATP1B1 Uptake (Percent of no transporter control cell) [1] | OATP1B3 Uptake (Percent of no transporter control cell) [2] | IC50 ([3]; Table 2) | IC50 ([3]; Table 3) | Kd [4]
1 | CC(C)n1cnnc1-c1cccc(N2Cc3ccc(-c4cccc(C(=O)O)c4)cc3C2=O)n1 [Compound 1, 3-(2-(6-(4-isopropyl-4H-1,2,4-triazol-3-yl)pyridin-2-yl)-3-oxoisoindolin-5-yl)benzoic acid] | 753% | 399% | 5.2 nM | 5.2 nM | 0.75 nM
2 | CC(C)n1cnnc1-c1cccc(N2Cc3ccc(-c4ccc(C(C)(C)C(=O)O)cc4)cc3C2=O)n1 [Compound 39, 2-(4-(2-(6-(4-isopropyl-4H-1,2,4-triazol-3-yl)pyridin-2-yl)-3-oxoisoindolin-5-yl)phenyl)-2-methylpropanoic acid] | 175% | 316% | 3.3 nM |  | 0.86 nM

— US10654833B2, “ASK1 isoindolin-1-one inhibitors and methods of use thereof” (Hepatikos Therapeutics, LLC, priority 2018, dated 2020)
